For test [1], the target named is T1, NHE3 (UniProt P48764).
T1 sequence (P48764 1-834): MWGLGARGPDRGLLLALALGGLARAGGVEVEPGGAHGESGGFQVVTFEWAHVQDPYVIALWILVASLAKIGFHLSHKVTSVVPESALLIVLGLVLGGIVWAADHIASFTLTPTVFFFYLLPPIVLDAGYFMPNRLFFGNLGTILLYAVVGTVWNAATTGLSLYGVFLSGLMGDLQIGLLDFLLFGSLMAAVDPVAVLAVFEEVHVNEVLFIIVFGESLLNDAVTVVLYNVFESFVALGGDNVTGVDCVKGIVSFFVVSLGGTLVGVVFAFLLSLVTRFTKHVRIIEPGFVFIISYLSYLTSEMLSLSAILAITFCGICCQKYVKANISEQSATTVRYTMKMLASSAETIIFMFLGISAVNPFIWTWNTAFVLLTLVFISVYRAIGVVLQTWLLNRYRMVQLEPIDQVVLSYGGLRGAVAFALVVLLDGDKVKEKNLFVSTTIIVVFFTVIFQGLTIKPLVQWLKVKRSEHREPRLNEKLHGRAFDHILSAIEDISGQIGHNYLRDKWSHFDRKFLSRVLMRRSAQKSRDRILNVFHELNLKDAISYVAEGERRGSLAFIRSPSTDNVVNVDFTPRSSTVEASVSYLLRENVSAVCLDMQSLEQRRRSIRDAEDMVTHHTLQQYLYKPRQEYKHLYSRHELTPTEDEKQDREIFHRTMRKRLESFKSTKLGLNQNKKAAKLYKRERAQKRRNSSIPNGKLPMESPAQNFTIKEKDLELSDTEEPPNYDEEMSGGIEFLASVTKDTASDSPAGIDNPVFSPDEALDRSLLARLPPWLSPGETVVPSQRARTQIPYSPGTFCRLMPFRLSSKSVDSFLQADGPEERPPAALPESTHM
The test is described as follows: Cell-based NHE3 activity under transient conditions (BCECF-AM intracellular pH, FLIPR). As to conditions: embodiment compounds, opossum kidney cells expressing NHE3, read-out: Cell-based NHE3 inhibition IC50 (uM) under transient conditions. Also noted: species or system Rat or Human. The text has this:
(§1) Opossum kidney (OK) cells were obtained from ATCC and cultured and expanded according to its instructions. OK monoclonal stable cell lines expressing the Rat NHE3 (Gene Bank registration number: M85300) protein and OK monoclonal stable cell lines expressing the Human NHE3 (Gene Bank registration number: NM_004174.1) protein were constructed by lentivirus infection.
The general procedure of the cell-based NHE3 activity experiments under transient conditions (transient inhibition) was based on an adaptation method of the pH-sensitive dye method originally reported by Tisen (Proc. Natl. Acad. Sci. USA) (1984) 81(23):7436-7440) to measure rat NHE3-mediated Na+-dependent reverse H+ transport, and was optimized according to the instructions “Measuring Intracellular pH With the FLIPR and FLIPR 384 Fluorometric Imaging Plate Reader Systems” published by Molecular Devices. The specific method was: Rat NHE3 OK monoclonal cells or Human NHE3 OK monoclonal cells were inoculated into 384-well plates and grew overnight. The medium was aspirated from the wells and the cells were washed twice with FLIPR buffer (Hank's BSS 1×, 20 mM HEPES, 1% BSA) followed by incubation with FLIPR buffer (Hank's BSS 1×, 20 mM HEPES, 1% BSA) containing […] BCECF-AM (Invitrogen) for 45 min at room temperature. Subsequently, […] of 200 mM NH4Cl-HEPES buffer (Hank's BSS 1×, 20 mM HEPES, 200 mM NH4Cl) was added and the cells were incubated for 15-20 minutes at room temperature. Cells were washed twice with 20 mM NH4Cl-HEPES buffer (Hank's BSS 1×, 20 mM HEPES, 20 mM NH4Cl). NHE3-mediated pH sensitization in cells was normalized by addition of containing 0.4 mM amiloride (EIPA) and […] test compound or Na-HEPES buffer (100 mM NaCl, 50 mM HEPES, 10 mM glucose, 5 mM KCl, 2 mM CaCl2), 1 mM MgCl2, pH 7.4) and monitoring of BCECF-AM fluorescence at λem 535 nm excitated by λex 440 nm and λex 490 nm respectively. Ratio=fluorescence value (λex 490 nm)/fluorescence value (λex 440 nm) was set, the average value of the Ratio difference between the end time and the start time between the duplicate wells was calculated, the average value and the concentration value of the compound were drawn, and Graphpad Prism software was used to estimate IC50 value.

The target of test [2] is T1, NHE3. The test is described as follows: Cell-based NHE3 activity under persistent conditions (60 min pre-incubation, compound removed). The settings on record: opossum kidney cells expressing NHE3, read-out: Cell-based NHE3 inhibition IC50 (uM) under persistent conditions. Also noted: species or system Rat or Human.
From the text: as §1
The general procedure of the cell-based NHE3 activity assay under persistent conditions (persistent inhibition) was: Rat NHE3 OK monoclonal cells or Human NHE3 OK monoclonal cells were inoculated into 384-well plates and grew overnight. The medium was aspirated from the wells and the cells were washed twice with FLIPR buffer (Hank's BSS 1×, 20 mM HEPES, 1% BSA) followed by the addition of Na-HEPES buffer containing […] test compound (100 mM NaCl, 50 mM HEPES, 10 mM glucose, 5 mM KCl, 2 mM CaCl2, 1 mM MgCl2, pH 7.4) and incubated for 60 minutes at room temperature. The compounds were aspirated from the wells and incubated with FLIPR buffer (Hank's BSS 1×, 20 mM HEPES, 1% BSA) containing […] BCECF-AM (Invitrogen) for 45 minutes at room temperature. Subsequently, […] of 200 mM NH4Cl-HEPES buffer (Hank's BSS 1×, 20 mM HEPES, 200 mM NH4Cl) was added and incubated for 15-20 minutes at room temperature. The cells were washed twice with 20 mM NH4Cl-HEPES buffer (Hank's BSS 1×, 20 mM HEPES, 20 mM […]). […] Ratio=fluorescence value (λex 490 nm)/fluorescence value (λex 440 nm) was set, the average value of the Ratio difference between the end time and the start time between the duplicate wells was calculated, the average value and the concentration value of the compound were drawn, and the dose-response-inhibition (four parameters) equation was used to estimate EC50 value by GraphpadPrism.

Consider `CN1Cc2c(Cl)cc(Cl)cc2C(c2ccc3c(c2)C(=O)N(CCOCCOCCNC(=O)[C@H](O)[C@H](O)[C@@H](O)[C@@H](O)C(=O)NCCOCCOCCN2Cc4ccc(C5CN(C)Cc6c(Cl)cc(Cl)cc65)cc4C2=O)C3)C1` (stereo partly shown) [Embodiment J4], for which the IC50 at NHE3 [1] was determined as 0.25 µM; on NHE3 [2], 0.05 µM.
For `CN1Cc2c(Cl)cc(Cl)cc2[C@H](c2cccc(S(=O)(=O)NCCOCCOCCNC(=O)NCCCCNC(=O)NCCOCCOCCNS(=O)(=O)c3cccc([C@@H]4CN(C)Cc5c(Cl)cc(Cl)cc54)c3)c2)C1` [Tenapanor, reference compound] the same measures were 0.74 µM and 0.56 µM.
For `CN1Cc2c(Cl)cc(Cl)cc2C(c2ccc3c(c2)C(=O)N(CCOCCOCCOCCNC(=O)NCCCCNC(=O)NCCOCCOCCCN2Cc4ccc(C5CCCc6ccc(Cl)cc65)cc4C2=O)C3)C1` (stereo not shown) [Embodiment B6] the same measures were 1.05 µM and 0.04 µM.
`CN1Cc2c(Cl)cc(Cl)cc2C(c2ccc3cn(CCOCCOCCNC(=O)NCCCCNC(=O)NCCOCCOCCn4cc5ccc(C6CN(C)Cc7c(Cl)cc(Cl)cc76)cc5n4)nc3c2)C1` (stereo not shown) [Embodiment D1-P1]: the figures for the IC50 on NHE3 [1] and at NHE3 [2] were 0.28 µM and 0.02 µM, respectively.
For `CN1Cc2c(Cl)cc(Cl)cc2C(c2ccc3c(c2)C(=O)N(CCOCCOCCNC(=O)Nc2ccc(NC(=O)NCCOCCOCCN4Cc5ccc(C6CN(C)Cc7c(Cl)cc(Cl)cc76)cc5C4=O)cc2)C3)C1` (stereo not shown) [Embodiment H2], in that order: 0.48 µM and 0.06 µM.
On to `CN1Cc2c(Cl)cc(Cl)cc2C(c2ccc3c(c2)S(=O)(=O)N(CCOCCOCCNC(=O)NCCCCNC(=O)NCCOCCOCCN2CCc4ccc(C5CN(C)Cc6c(Cl)cc(Cl)cc65)cc4S2(=O)=O)CC3)C1` (stereo not shown) [Embodiment C1], for which the IC50 was 0.22 µM on NHE3 [1] and 0.59 µM at NHE3 [2].
On to `CN1Cc2c(Cl)cc(Cl)cc2C(c2ccc3c(c2)C(=O)N(CCOCCOCCOCCNC(=O)CN(CCN(CC(=O)O)CC(=O)NCCOCCOCCOCCN2Cc4ccc(C5CN(C)Cc6c(Cl)cc(Cl)cc65)cc4C2=O)CC(=O)O)C3)C1` (stereo not shown) [Embodiment F2], for which the IC50 worked out at 0.62 µM on NHE3 [1] and 0.08 µM at NHE3 [2].
For `CN1Cc2c(Cl)cc(Cl)cc2C(c2ccc3ccn(CCOCCOCCNC(=O)NCCCCNC(=O)NCCOCCOCCn4ccc5ccc(C6CN(C)Cc7c(Cl)cc(Cl)cc76)cc5c4=O)c(=O)c3c2)C1` (stereo not shown) [Embodiment B5], in that order: 0.23 µM and 0.57 µM.

For the origin of these results see patent publication US20240082406A1, “BENZOHETEROCYCLE SUBSTITUTED TETRAHYDROISOQUINOLINE COMPOUND” (SHANGHAI JEMINCARE PHARMACEUTICAL CO., LTD, priority 2020, published 2024).
